Measured values reported in patent US11753407B2, “Compounds for treating spinal muscular atrophy” (PTC Therapeutics, Inc., priority 2012, dated 2023).

Columns and labels:
[1] = test system: Smn protein in SMA patient fibroblast cells (GM03813); assay: Smn protein assay in cultured cells (SMN HTRF); type: cell-based, human; details: SMA patient fibroblast cells, 48 hours; for EC1.5x for Smn protein expression: 7-point concentration curve, SMN HTRF, concentration producing 1.5 times Smn protein vs DMSO vehicle control; for maximum fold (Fold) increase of Smn protein: 7-point concentration data, fold relative to vehicle control
Outline: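 Cells were cultured 72 h, seeded at 5,000/well and dosed with seven concentrations (3.16-fold apart) for 48 h. HTRF on lysates, read at 665 and 620 nm, gave blank-corrected ΔF values relative to DMSO. Potency is reported as EC1.5×, efficacy as maximal fold Smn increase.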

[2] = test system: SMN2 minigene mRNA (SMN2-A minigene) in HEK293H cells; assay: SMN2 minigene mRNA splicing RT-qPCR assay in cultured cells; type: cell-based, human; details: Homo sapiens, HEK293-H; concentration increasing full length SMN2 mRNA 1.5-fold relative to vehicle-treated cells; HEK293H cells with SMN2-A minigene, 24 hours, 7-point concentration data; read-out: EC1.5x for production of full length SMN2 mRNA
Outline: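 EC1.5× values derive from a 24 h treatment of SMN2-A minigene HEK293H cells and GAPDH-normalized RT-qPCR of exon 7-included minigene mRNA relative to vehicle-treated cells.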

Compound | EC1.5x for Smn protein expression [1] | maximum fold (Fold) increase of Smn protein [1] | EC (1.5-fold increase) [2] [µM] | melting point
Cc1nc2ccc(-c3cc(=O)n4cc(N5CCC(N)C5)ccc4n3)cc2s1 (stereo not drawn) [Compound 382, 7-(3-aminopyrrolidin-1-yl)-2-(2-methyl-1,3-benzothiazol-6-yl)-4H-pyrido[1,2-a]pyrimidin-4-one] | *** (an EC1.5× between >0.3 μM and ≤1 μM is indicated by three stars (***)) | **** (a fold increase between >1.5 and ≤1.65 is indicated by four stars (****)) | < 0.1 | 196 to 200 °C
Cc1nc2ccc(-c3cc(=O)n4cc(N5CC[C@@H](N(C)C)C5)ccc4n3)cc2s1 [Compound 383, 7-[(3R)-3-(dimethylamino)pyrrolidin-1-yl]-2-(2-methyl-1,3-benzothiazol-6-yl)-4H-pyrido[1,2-a]pyrimidin-4-one] |  | ** (a fold increase between >1.2 and ≤1.35 is indicated by two stars (**)) | 0.3 to 1 | 235 to 240 °C
Cc1nc2ccc(-c3cc(=O)n4cc(C5=CCNCC5)ccc4n3)cc2s1 [Compound 384, 2-(2-methyl-1,3-benzothiazol-6-yl)-7-(1,2,3,6-tetrahydropyridin-4-yl)-4H-pyrido[1,2-a]pyrimidin-4-one] | **** (an EC1.5x≤0.3 μM is indicated by four stars (****)) | ***** (a fold increase >1.65 is indicated by five stars (*****)) | < 0.1 | 124 to 126 °C
COCCN1CCN(c2ccc3nc(-c4cc(F)c5nc(C)cn5c4)cc(=O)n3c2)CC1 [Compound 385, 2-(8-fluoro-2-methylimidazo[1,2-a]pyridin-6-yl)-7-[4-(2-methoxyethyl)piperazin-1-yl]-4H-pyrido[1,2-a]pyrimidin-4-one] | *** (an EC1.5× between >0.3 μM and ≤1 μM is indicated by three stars (***)) | ***** (a fold increase >1.65 is indicated by five stars (*****)) | < 0.1 | 258 to 262 °C
COc1ccc(-c2cc(=O)n3cc(C4=CCN(C5COC5)CC4)cc(C)c3n2)cc1OC [Compound 386, 2-(3,4-dimethoxyphenyl)-9-methyl-7-[1-(oxetan-3-yl)-1,2,3,6-tetrahydropyridin-4-yl]-4H-pyrido[1,2-a]pyrimidin-4-one] |  | * (A maximum fold increase of ≤1.2 is indicated by one star (*)) | 0.3 to 1 | 180 to 195 °C
COc1ccc(-c2cc(=O)n3cc(C4=CCN(C(C)C)CC4)cc(C)c3n2)cc1OC [Compound 387, 2-(3,4-dimethoxyphenyl)-9-methyl-7-[1-(propan-2-yl)-1,2,3,6-tetrahydropyridin-4-yl]-4H-pyrido[1,2-a]pyrimidin-4-one] |  | ** (a fold increase between >1.2 and ≤1.35 is indicated by two stars (**)) | 0.3 to 1 | 153 to 163 °C
COc1ccc(-c2cc(=O)n3cc(C4=CCNCC4)c(C)cc3n2)cc1OC [Compound 389, 2-(3,4-dimethoxyphenyl)-8-methyl-7-(1,2,3,6-tetrahydropyridin-4-yl)-4H-pyrido[1,2-a]pyrimidin-4-one] |  | ** (a fold increase between >1.2 and ≤1.35 is indicated by two stars (**)) | 1 to 3 | 175 °C (dec.)
COc1ccc(-c2cc(=O)n3cc(C4=CCN(C5CC5)CC4)cc(C)c3n2)cc1OC [Compound 390, 7-(1-cyclopropyl-1,2,3,6-tetrahydropyridin-4-yl)-2-(3,4-dimethoxyphenyl)-9-methyl-4H-pyrido[1,2-a]pyrimidin-4-one] |  | * (A maximum fold increase of ≤1.2 is indicated by one star (*)) | 0.3 to 1 | 180 to 189 °C
COc1ccc(-c2cc(=O)n3cc(C4=CCN(C)CC4)c(C)cc3n2)cc1OC [Compound 391, 2-(3,4-dimethoxyphenyl)-8-methyl-7-(1-methyl-1,2,3,6-tetrahydropyridin-4-yl)-4H-pyrido[1,2-a]pyrimidin-4-one] |  | * (A maximum fold increase of ≤1.2 is indicated by one star (*)) | 1 to 3 | 174 to 178 °C
Cc1nc2ccc(-c3cc(=O)n4cc(C5=CCN(C)CC5)ccc4n3)cc2s1 [Compound 392, 2-(2-methyl-1,3-benzothiazol-6-yl)-7-(1-methyl-1,2,3,6-tetrahydropyridin-4-yl)-4H-pyrido[1,2-a]pyrimidin-4-one] |  | *** (a fold increase between >1.35 and ≤1.5 is indicated by three stars (***)) | 0.1 to 0.3 | 170 to 172 °C
Cc1nc2ccc(-c3cc(=O)n4cc(C5=CCN(CCO)CC5)ccc4n3)cc2s1 [Compound 393, 7-[1-(2-hydroxyethyl)-1,2,3,6-tetrahydropyridin-4-yl]-2-(2-methyl-1,3-benzothiazol-6-yl)-4H-pyrido[1,2-a]pyrimidin-4-one] | *** (an EC1.5× between >0.3 μM and ≤1 μM is indicated by three stars (***)) | *** (a fold increase between >1.35 and ≤1.5 is indicated by three stars (***)) | < 0.1 | 178 to 180 °C
Cc1nc2ccc(-c3cc(=O)n4cc(C5=CCN(C(C)C)CC5)ccc4n3)cc2s1 [Compound 394, 2-(2-methyl-1,3-benzothiazol-6-yl)-7-[1-(propan-2-yl)-1,2,3,6-tetrahydropyridin-4-yl]-4H-pyrido[1,2-a]pyrimidin-4-one] |  | ** (a fold increase between >1.2 and ≤1.35 is indicated by two stars (**)) | 0.1 to 0.3 | 168 to 170 °C
Cc1nc2ccc(-c3cc(=O)n4cc(C5=CCN(C6CC6)CC5)ccc4n3)cc2s1 [Compound 395, 7-(1-cyclopropyl-1,2,3,6-tetrahydropyridin-4-yl)-2-(2-methyl-1,3-benzothiazol-6-yl)-4H-pyrido[1,2-a]pyrimidin-4-one] |  | ** (a fold increase between >1.2 and ≤1.35 is indicated by two stars (**)) | 0.3 to 1 | 158 to 160 °C
CCN1CC=C(c2ccc3nc(-c4ccc5nc(C)sc5c4)cc(=O)n3c2)CC1 [Compound 396, 7-(1-ethyl-1,2,3,6-tetrahydropyridin-4-yl)-2-(2-methyl-1,3-benzothiazol-6-yl)-4H-pyrido[1,2-a]pyrimidin-4-one] | *** (an EC1.5× between >0.3 μM and ≤1 μM is indicated by three stars (***)) | **** (a fold increase between >1.5 and ≤1.65 is indicated by four stars (****)) | 0.1 to 0.3 | 128 to 130 °C
Cc1cn2nc(-c3cc(=O)n4cc(N5CCN(C)[C@H](C)C5)ccc4n3)cc2c(C)n1 [Compound 397, 7-[(3R)-3,4-dimethylpiperazin-1-yl]-2-(4,6-dimethylpyrazolo[1,5-a]pyrazin-2-yl)-4H-pyrido[1,2-a]pyrimidin-4-one] | **** (an EC1.5x≤0.3 μM is indicated by four stars (****)) | ***** (a fold increase >1.65 is indicated by five stars (*****)) | < 0.1 | 247 to 249 °C
